Assay results published in patent publication US11111243B2, “Azaindole compounds as histone methyltransferase inhibitors” (GLOBAL BLOOD THERAPEUTICS, INC., priority 2017, dated 2021).
Counter-ions that a name gives are not always drawn.

Target: T1, G9a (Homo sapiens, UniProt Q96KQ7)
T1 sequence (Q96KQ7 1-1210): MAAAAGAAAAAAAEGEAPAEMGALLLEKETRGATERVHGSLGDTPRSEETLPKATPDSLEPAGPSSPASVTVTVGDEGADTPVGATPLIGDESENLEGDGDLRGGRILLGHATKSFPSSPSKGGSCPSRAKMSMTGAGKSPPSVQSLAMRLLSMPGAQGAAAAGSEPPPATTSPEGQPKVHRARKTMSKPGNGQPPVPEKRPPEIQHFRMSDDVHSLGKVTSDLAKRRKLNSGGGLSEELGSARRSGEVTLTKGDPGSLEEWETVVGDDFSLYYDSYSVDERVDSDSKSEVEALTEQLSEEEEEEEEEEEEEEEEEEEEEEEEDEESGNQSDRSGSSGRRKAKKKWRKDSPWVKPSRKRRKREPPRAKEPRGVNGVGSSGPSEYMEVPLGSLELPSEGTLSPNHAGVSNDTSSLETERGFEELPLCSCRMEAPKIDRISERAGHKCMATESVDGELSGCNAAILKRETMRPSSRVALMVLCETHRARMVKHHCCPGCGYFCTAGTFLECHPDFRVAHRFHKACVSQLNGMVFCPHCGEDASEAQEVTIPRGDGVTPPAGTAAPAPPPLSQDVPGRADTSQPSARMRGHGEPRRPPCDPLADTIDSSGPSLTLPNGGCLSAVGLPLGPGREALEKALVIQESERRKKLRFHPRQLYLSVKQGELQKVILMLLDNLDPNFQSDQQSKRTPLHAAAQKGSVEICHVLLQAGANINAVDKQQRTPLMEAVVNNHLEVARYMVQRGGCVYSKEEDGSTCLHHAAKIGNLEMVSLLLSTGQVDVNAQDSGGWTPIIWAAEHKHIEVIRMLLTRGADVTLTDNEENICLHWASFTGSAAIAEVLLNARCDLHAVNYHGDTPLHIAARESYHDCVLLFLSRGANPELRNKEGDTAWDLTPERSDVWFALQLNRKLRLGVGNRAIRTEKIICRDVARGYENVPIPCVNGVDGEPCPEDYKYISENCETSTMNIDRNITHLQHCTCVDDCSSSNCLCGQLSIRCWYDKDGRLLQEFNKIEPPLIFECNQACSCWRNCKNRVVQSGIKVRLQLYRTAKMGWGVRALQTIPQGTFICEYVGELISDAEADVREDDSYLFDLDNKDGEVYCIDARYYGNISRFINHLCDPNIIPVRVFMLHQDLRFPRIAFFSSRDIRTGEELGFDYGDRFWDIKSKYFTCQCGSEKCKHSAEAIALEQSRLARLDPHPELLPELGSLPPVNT
Assay: G9a AlphaLISA enzymatic activity assay
Format: biochemical
Conditions: 0.15 nM G9a, 10 uM S-adenosyl-methionine, 100 nM biotinylated histone 3 peptide (1-21), 1 h room temperature
Excerpt: The G9a AlphaLISA assay was used to detect the methyl modifications of a biotinylated histone H3 peptide by the compounds. These modifications are done by the histone methyl transferase activity of the G9a enzyme. The assay consists of reading a chemiluminescent signal at 615 nm; this signal is generated by a laser excitation at 680 nm that transfers a reactive singlet oxygen between the donor beads and acceptor beads. Donor beads are streptavidin conjugated and bind to the biotin on the peptide. Acceptor beads are conjugated with an antibody that recognizes the specific G9a methyl mark on the peptide. If there is a methyl mark on the peptide, the acceptor beads will bind to the peptide. Upon binding, the acceptor beads will be in close proximity (<200 nm) of the donor beads and when the donor beads are excited, the transfer of the oxygen can occur and a strong signal will be generated. If there is no methyl mark, the interaction between beads will not occur and signal will be at background levels.
For the assay, the following buffer was used to set up reactions: 50 mM Tris-HCl pH9, 50 mM NaCl, 0.01% Tween-20 and 1 mM DTT (added fresh prior to starting the reactions). The assay is set up by adding a final concentration of 0.15 nM G9a, 10 uM S-adenosyl-methionine and, 100 nM biotinylated histone 3 peptide (1-21). The reaction is incubated at room temperature for 1 h, and subsequently quenched by the addition of the acceptor beads (anti-H3k9me2 AlphaLISA acceptor beads, PerkinElmer #AL117) at a final concentration of 20 ug/mL. The acceptor beads are incubated for 1 h. After 1 h, the donor beads are added at a final concentration of 20 ug/mL (Alpha Streptavidin donor beads, PerkinElmer #6760002). Donor beads are incubated for 0.5 h. Both donor and acceptor beads are resuspended in AlphaLISA 5× Epigenetics Buffer 1 Kit (PerkinElmer #AL008) prior to addition to the reaction. All manipulations and incubations with the donor and acceptor beads are done in subdued light. Signal is detected in an EnVision plate reader in Alpha mode (See ACS Med Chem Lett. 2014 Jan. 2; 5(2):205-9)
Percent inhibition was calculated for each compound dilution and the concentration that produced 50% inhibition was calculated. This value is presented as the IC50.

| IC50 | SMILES |
| --- | --- |
| 61 nM | CCOCCc1nccc2[nH]c3cc(OCCCN(C)C)c(OC)cc3c12 [Compound 57, (3-{[1-(2-ethoxyethyl)-8-methoxy-5H-pyrido[4,3-b]indol-7-yl]oxy}propyl)dimethylamine hydrochloride] |
| 100 nM | COc1cc2c(cc1OCCCN1CCCC1)[nH]c1ccnc(-c3ccncc3)c12 [Compound 23, 8-methoxy-1-(pyridin-4-yl)-7-(3-(pyrrolidin-1-yl)propoxy)-5H-pyrido[4,3-b]indole] |
| 400 nM | COc1cc2c(cc1OCCN(C)C)[nH]c1ccncc12 [Compound 70, [2-({8-methoxy-5H-pyrido[4,3-b]indol-7-yl}oxy)ethyl]dimethylamine hydrochloride] |
| 54 nM | COc1cc2c3cnccc3n(C)c2cc1OCCCN1CCCC1 [Compound 94, 1-[3-({8-methoxy-5-methyl-5H-pyrido[4,3-b]indol-7-yl}oxy)propyl]pyrrolidine hydrochloride] |
| 9.4 nM | COc1cc2c(cc1OCCCN(C)C)[nH]c1ccnc(C3CC3)c12 [Compound 47, [3-({1-cyclopropyl-8-methoxy-5H-pyrido[4,3-b]indol-7-yl}oxy)propyl]dimethylamine hydrochloride] |
| 3.3 nM | COc1cc2c(cc1OCCCN1CCCC1)[nH]c1ccnc(N3CCCC3)c12 [Compound 15, 1-{8-methoxy-7-[3-(pyrrolidin-1-yl)propoxy]-5H-pyrido[4,3-b]indol-1-yl}pyrrolidine] |
| 8.2 nM | COc1cc2c(cc1OCCCN1CCCC1)[nH]c1ccnc(C3CCOCC3)c12 [Compound 65, 1-(3-{[8-methoxy-1-(oxan-4-yl)-5H-pyrido[4,3-b]indol-7-yl]oxy}propyl)pyrrolidine hydrochloride] |
| > 10000 nM | COc1cc2c(cc1OCCCN1CCCC1)[nH]c1cc(O)ncc12 [Compound 80, 8-methoxy-7-(3-(pyrrolidin-1-yl)propoxy)-5H-pyrido[4,3-b]indol-3-ol formate] |
| 150 nM | COc1cc2c(cc1OCCCN1CCCC1)[nH]c1cccnc12 [Compound 27, 1-[3-({8-methoxy-5H-pyrido[3,2-b]indol-7-yl}oxy)propyl]pyrrolidine hydrochloride] |
| 570 nM | COc1cc2c(cc1OCCCN1CCCC1)[nH]c1ncncc12 [Compound 22, 1-[3-({6-methoxy-9H-pyrimido-[4,5-b]indol-7-yl}oxy)propyl]-pyrrolidine] |
| 3.3 nM | CCCc1nccc2[nH]c3cc(OCCCN4CCCC4)c(OC)cc3c12 [Compound 21, 1-[3-({8-methoxy-1-propyl-5H-pyrido[4,3-b]indol-7-yl}oxy)-propyl]pyrrolidine] |
| 9.5 nM | COc1cc2c(cc1OCCCN(C)C)[nH]c1ccnc(C(C)C)c12 [Compound 67, (3-{[8-methoxy-1-(propan-2-yl)-5H-pyrido[4,3-b]indol-7-yl]oxy}propyl)dimethylamine hydrochloride] |
| 100 nM | COc1cc2c(cc1OCCCN(C)C)[nH]c1ccnc(CCC3CC3)c12 [Compound 52, 3-((1-(2-cyclopropylethyl)-8-methoxy-5H-pyrido[4,3-b]indol-7-yl)oxy)-N,N-dimethylpropan-1-amine hydrochloride] |
| 180 nM | COc1cc2c(cc1OCCCN1CCCC1)[nH]c1c(Cl)cnc(N3CCCC3)c12 [Compound 86, 1-{4-chloro-8-methoxy-7-[3-(pyrrolidin-1-yl)propoxy]-5H-pyrido[4,3-b]indol-1-yl}pyrrolidine hydrochloride] |
| 160 nM | C#Cc1nccc2[nH]c3cc(OCCCN(C)C)c(OC)cc3c12 [Compound 59, [3-({1-ethynyl-8-methoxy-5H-pyrido[4,3-b]indol-7-yl}oxy)propyl]dimethylamine hydrochloride] |
| 51 nM | COc1cc2c(cc1OCCCN(C)C)[nH]c1ccnc(N3CCCC3)c12 [Compound 92, (3-{[8-methoxy-1-(pyrrolidin-1-yl)-5H-pyrido[4,3-b]indol-7-yl]oxy}propyl)dimethylamine hydrochloride] |
